Tests used:
[1] = GC retention time (DB-5MS, GC-APCI); higher = later elution
Description: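 Standards of hydrophobic organic contaminants were analysed by GC-APCI (positive mode, dry or wet source conditions) coupled to cyclic ion mobility-QTOF MS. CCS was measured for the base ion (sometimes a fragment ion) in N2 drift gas (one-pass mode, calibrated with a Waters 22-compound mix). 5 mL/min).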

[2] = collision cross section (N2, base ion); higher = larger ion cross section
Description: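 Standards of hydrophobic organic contaminants were analysed by GC-APCI (positive mode, dry or wet source conditions) coupled to cyclic ion mobility-QTOF MS. CCS was measured for the base ion (sometimes a fragment ion) in N2 drift gas (one-pass mode, calibrated with a Waters 22-compound mix).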

Row | Compound | GC retention time [1] [min] | collision cross section [2] [Å²]
1 | Brc1cc(Br)c(Oc2cc(Br)c(Br)cc2Br)cc1Br [PBDE 153] (APCI source condition: Dry, base ion: M+.) | 26 | 180.67
2 | CCCCC(CC)COC(=O)c1c(Br)c(Br)c(Br)c(Br)c1C(=O)OCC(CC)CCCC (configuration not stated) [Bis(2-ethylhexyl) tetrabromophthalate] (APCI source condition: Dry, base ion: C8HBr4O3+) | 30.1 | 141.58
3 | CCCCOCCOP(=O)(OCCOCCCC)OCCOCCCC [Tris(2-butoxyethyl) phosphate] (APCI source condition: Wet, base ion: [M+H]+) | 21.1 | 198.91
4 | Clc1ccc(-c2ccc(Cl)cc2Cl)cc1 [PCB 28] (APCI source condition: Dry, base ion: M+.) | 16.4 | 142.54
5 | Clc1ccc(-c2cc(Cl)c(Cl)c(Cl)c2Cl)c(Cl)c1Cl [PCB 170] (APCI source condition: Dry, base ion: M+.) | 22.5 | 165.18
6 | c1ccc2c(c1)c1cccc3ccc4cccc2c4c31 [Benzo(e)pyrene] (APCI source condition: Dry, base ion: M+.) | 24.7 | 142.88
7 | CCCCC(CC)COC(=O)c1cc(Br)c(Br)c(Br)c1Br (configuration not stated) [2-Ethylhexyl-2,3,4,5-tetrabromobenzoate] (APCI source condition: Dry, base ion: C7H3Br4O2+) | 24.2 | 141.48
8 | Clc1ccc(C(c2ccccc2Cl)C(Cl)(Cl)Cl)cc1 (configuration not stated) [2,4'-DDT] (APCI source condition: Dry, base ion: [M-CCl3]+) | 20.2 | 140.36
9 | c1ccc2c(c1)ccc1ccc3ccccc3c12 [Benzo(c)phenanthrene] (APCI source condition: Dry, base ion: M+.) | 21.3 | 140.99
10 | Brc1cc(Br)c(Oc2cc(Br)c(Br)cc2Br)c(Br)c1 [PBDE 154] (APCI source condition: Dry, base ion: M+.) | 25.4 | 178.18
11 | Clc1cc(Cl)c(-c2cc(Cl)c(Cl)c(Cl)c2Cl)cc1Cl [PCB 180] (APCI source condition: Dry, base ion: M+.) | 22 | 166.55
